This note sets out measurements from patent US12496301B2, “Use of androgen receptor degrader for the treatment of spinal and bulbar muscular atrophy” (Arvinas Operations, Inc., priority 2023, dated 2025).

One assay has as its system polyQ-AR. The assay is described as follows: Myotube high content imaging of polyQ-AR in myotubes that overexpress polyQ-AR. As to conditions: 24 hours treatment, nuclear compartment. It counts as cell-based, human. How it is done:
Cells were maintained in skeletal growth medium (PromoCell #23160). Immortalized myoblasts harboring inducible human androgen receptor with 56 CAG repeats (hAR56Q) were constructed by lentiviral transduction with CMV-rtTA and TetO-AR56Q-T2A-Puromycin (Mamchaoui, K. et al. Skeletal Muscle 1, 34 (2011)).
On day 0, immortalized myoblasts with inducible polyQ-AR (described above in “Cell lines”) cells were seeded onto Geltrex-coated 96-well plates at a density of 4×10^6 cells per plate in myoblast basal media (Promocell C-23060) supplemented with 1% penicillin-streptomycin (Pen Strep) antibiotics. The plates were then incubated overnight at 37° C. in a 5% CO2 environment. Upon reaching 100% confluency (Day 1), the myoblast media were aspirated and replaced with myotube differentiation media (Promocell C-23061). The cells were cultured in this differentiation media for 6 days, with media changes occurring every three days.
On the sixth day of differentiation, the compounds and doxycycline ([…]) diluted in 100% dimethyl sulfoxide (DMSO) were added to the myotubes. The plate was then incubated for 24 hours at 37° C. in an incubator. On the following day (Day 7), the culture media was removed from the plates and replaced with 50 μL of 4% paraformaldehyde (PFA) prepared in 1× phosphate-buffered saline (PBS). The plates were incubated with PFA for 15 minutes, followed by three washes with PBS. Subsequently, the myotubes were permeabilized for 15 minutes using 0.5% Triton X-100 in 1×PBS and then blocked with 5% Bovine Serum Albumin (BSA) (Thermofisher, #37520) for one hour at room temperature. After blocking, the plates were incubated overnight at 4° C. with primary antibodies: a 1:100 diluted Androgen Receptor antibody (D6F11 Cell Signaling 5135S) and a 1:200 diluted Desmin antibody (Thermofisher, MA1-22150) in PBS containing 0.1% BSA. […] Degradation was quantified by determining the average intensity of AR within separate nuclear and cytoplasmic compartments in Desmin positive area (myotubes).

In a further assay the target is T1, endogenous AR (Mus musculus, UniProt P19091).
T1 construct: from tissue; host or cells: mouse LABC muscle (C57Bl/6 and hAR100Q mice); quadriceps (hAR100Q mice)
T1 sequence (P19091 1-899): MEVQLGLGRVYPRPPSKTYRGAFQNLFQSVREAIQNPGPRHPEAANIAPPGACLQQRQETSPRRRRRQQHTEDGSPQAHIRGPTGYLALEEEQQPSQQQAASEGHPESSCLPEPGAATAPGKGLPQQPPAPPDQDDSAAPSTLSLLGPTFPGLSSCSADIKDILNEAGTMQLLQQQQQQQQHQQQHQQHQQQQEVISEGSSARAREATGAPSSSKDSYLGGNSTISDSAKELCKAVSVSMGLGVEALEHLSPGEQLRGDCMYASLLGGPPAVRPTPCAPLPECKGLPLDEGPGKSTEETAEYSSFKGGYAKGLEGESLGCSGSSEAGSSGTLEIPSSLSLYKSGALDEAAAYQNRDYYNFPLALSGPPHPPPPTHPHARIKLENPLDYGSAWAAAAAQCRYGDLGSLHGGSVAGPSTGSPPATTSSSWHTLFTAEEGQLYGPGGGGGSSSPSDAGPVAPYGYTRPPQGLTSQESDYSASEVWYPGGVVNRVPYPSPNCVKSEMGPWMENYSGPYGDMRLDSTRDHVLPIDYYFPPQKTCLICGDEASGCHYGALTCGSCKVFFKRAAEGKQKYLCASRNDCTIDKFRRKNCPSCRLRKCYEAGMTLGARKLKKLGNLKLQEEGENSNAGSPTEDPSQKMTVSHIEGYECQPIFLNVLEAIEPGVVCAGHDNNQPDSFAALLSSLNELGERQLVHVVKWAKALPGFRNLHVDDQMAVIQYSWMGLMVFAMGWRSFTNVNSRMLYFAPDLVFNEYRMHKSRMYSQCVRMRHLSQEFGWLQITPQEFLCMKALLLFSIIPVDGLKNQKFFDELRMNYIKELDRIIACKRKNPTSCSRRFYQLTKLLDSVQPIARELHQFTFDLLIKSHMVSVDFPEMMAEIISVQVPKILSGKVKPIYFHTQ
The assay is described as follows: In vivo AR degradation in LABC muscle of C57Bl/6 mice (mouse AR ELISA), PK/PD. How it is done:
Using six- to eight-week-old C57Bl/6 male mice, chow and water were provided ad libitum. Compounds were administered by oral gavage at the indicated dose using 5% dimethyl sulfoxide (DMSO), 95% (2% Tween 80, PEG 400) as the vehicle. Mice were euthanized by using Isoflurane inhalation (2-4% induction) followed by decapitation 24 hours post dose unless otherwise indicated. The levator ani/bulbocavernosus (LABC) muscle was dissected and immediately snap frozen and stored at −80° C. prior to analysis. Compound exposure was measured in serum and muscle lysates.
Anti-androgen receptor rabbit polyclonal antibody, clone PG-21 (Millipore; 06-680), was diluted in BupH carbonate-bicarbonate buffer (Thermo; 28382) to a concentration of 2 μg/mL and coated onto 96-well ELISA plates by incubating 50 μL per well overnight at 37° C. Plates were washed 4× with tris-buffered saline (TBS) buffer containing 0.1% Tween-20 (TBS-0.1% T) and blocked with 3% bovine serum albumin in TBS-T for 3 hours at room temperature (200 μL per well). AR peptide standard (Creative Biomart; Cat. No. AR-9788H) and samples were diluted in 1% bovine serum albumin (BSA)/TBS-0.05% T. After the blocking period, plates were washed as above, and 50 μL of standard and samples were added. Plates were incubated overnight at 4° C. with shaking. Following the incubation period, the plates were allowed to acclimate to room temperature with shaking for 1 hour. The detection antibody (anti-AR antibody, clone EPR1535 (abcam; ab194196)), conjugated to horse radish peroxidase (HRP), was diluted 1:15000 in 1% BSA/TBS-0.05% T and co-incubated with the samples by adding 50 μL to each well and shaking for 2 hours at room temperature. Plates were washed as above. Chemiluminescent substrate (ELISABright; Advansta; K-16025) was added to the plates (100 μL per well).
In vivo degradation of endogenous AR was evaluated for 95 compounds in murine levator ani/bulbocavernosus (LABC) muscle using a 30 mg/kg PO dose (see Example 1). The observed AR degradation for these 95 compounds ranged from 0-85% of AR in mouse LABC.
A general note: In an ELISA, binding on a coated surface is turned into a signal by an enzyme label.

With `CC(C)N(CC1CCN(c2ncc(C(=O)N[C@H]3C(C)(C)[C@H](Oc4ccc(C#N)c(Cl)c4)C3(C)C)cn2)CC1)[C@H]1C[C@H](Oc2ccc3c(c2)C(=O)N(C2CCC(=O)NC2=O)C3=O)C1` (stereo partly shown) [Compound A, N-((1r,3r)-3-(3-chloro-4-cyanophenoxy)-2,2,4,4-tetramethylcyclobutyl)-2-(4-((((1r,3r)-3-((2-(2,6-dioxopiperidin-3-yl)-1,3-dioxoisoindolin-5-yl)oxy)cyclobutyl)(isopropyl)amino)methyl)piperidin-1-yl)pyrimidine-5-carboxamide], the “mean Dmax for polyQ-AR in myotube nuclei” value in the assay on polyQ-AR is given as “approximately 40%”. In addition, the “time for AR levels in LABC muscle to return to normal post administration” value at endogenous AR (30 mg/kg, once per day (QD) for 3 days) is on record as “about 3 days”. At endogenous AR (mouse LABC muscle), the “time for AR to return to basal levels in LABC muscle” value fell in the range of 48 to 72 h. Besides, at endogenous AR (mouse muscle), the “dose that achieves AR degradation of ~50%” value is on record as “About 10 mg/kg”.
